Measurements reported in US20210395210A1, “INHIBITION OF BACTERIAL CHAPERONIN SYSTEMS” (THE TRUSTEES OF INDIANA UNIVERSITY, priority 2018, published 2021).
Read-outs that look alike come from different tables or passages of the source. Blank lines part the entries; values can stand above or below the compound they belong to.

Assays:
human HSP60/10 = biological target: T1, human HSP60/10 (Homo sapiens, UniProt P10809); assay: HSP60/10-mediated dMDH refolding assay; assay type: biochemical
T1 construct: octa-Histidine tag (TEV-cleavable) (N, cleaved yes); made in house; host or cells: HSP60 in E. coli Rosetta 2 (DE3); HSP10 in Rosetta 2 (DE3) pLysS
T1 sequence (P10809 27-573): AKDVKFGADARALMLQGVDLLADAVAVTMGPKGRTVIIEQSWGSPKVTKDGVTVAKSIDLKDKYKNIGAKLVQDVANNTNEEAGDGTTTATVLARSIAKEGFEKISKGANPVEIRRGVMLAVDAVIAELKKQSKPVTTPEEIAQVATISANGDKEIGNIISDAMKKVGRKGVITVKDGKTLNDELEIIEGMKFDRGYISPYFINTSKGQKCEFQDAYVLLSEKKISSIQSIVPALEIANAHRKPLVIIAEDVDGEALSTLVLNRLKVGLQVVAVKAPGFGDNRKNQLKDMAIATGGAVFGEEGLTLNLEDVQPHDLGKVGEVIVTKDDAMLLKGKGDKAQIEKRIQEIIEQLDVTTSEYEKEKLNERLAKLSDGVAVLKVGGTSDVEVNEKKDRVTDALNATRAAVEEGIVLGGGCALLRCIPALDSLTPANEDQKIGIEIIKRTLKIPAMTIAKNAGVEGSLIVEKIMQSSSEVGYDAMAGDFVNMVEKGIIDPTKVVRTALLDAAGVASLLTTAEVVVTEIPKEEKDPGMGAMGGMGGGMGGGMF
Outline: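 Refolding activity followed via MDH turnover, measured as the A340 drop from NADH with sodium mesoxalate, after ATP-driven chaperonin cycling at 37° C and EDTA quench. Refolding mix: 50 nM GroEL or HSP60, 60 nM GroES or HSP10, 12 nM denatured MDH, 1 mM ATP, compound 100 μM–46 nM (3-fold). IC50s averaged from quadruplicates.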

[1] = system: Enterococcus faecium (ATCC 19434); assay: Bacterial proliferation assay, E. faecium; assay type: cell-based
Outline: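 This stagnant growth-inhibition assay used E. faecium (ATCC 19434) in cation-adjusted Brain Heart Infusion medium. Diluted cultures (OD600 0.017) were added to clear flat-bottom 384-well plates containing 0.5 μL compound in 20 μL media. After 24 h without shaking at 37° C., absorbance at 600 nm was measured, corrected with bacteria-free plates, and EC50 values were averaged from quadruplicates.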

[2] = system: Methicillin resistant S. aureus (MRSA) (ATCC BAA-44); assay: Bacterial proliferation assay, MRSA; assay type: cell-based, Staphylococcus aureus; conditions: Staphylococcus aureus
Outline: (§1)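 Cation-adjusted BHI (25 mg/L Ca2+, 12.5 mg/L Mg2+); inoculum OD600 0.017; static 37 °C. Read OD600 at 6-8 h for S. aureus, E. cloacae, P. aeruginosa; 24 h for A. baumannii.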

[3] = system: Acinetobacter baumannii (ATCC 19606); assay: Bacterial proliferation assay, A. baumannii; assay type: cell-based
Outline: as §1

[4] = human HSP60/10-dMDH refolding assay, read-out: HSP60/10-dMDH Refolding IC50
[5] = log(IC50) ± standard deviation, human HSP60/10-dMDH refolding assay, read-out: HSP60/10-dMDH Refolding Assay log(IC50) (converted)
[6] = ATCC19434, OD600 at 24 h, read-out: Bacterial Proliferation EC50 E. faecium
[7] = ATCC19434, log of EC50 (μM scale), with standard deviation, read-out: log(EC50) Bacterial Proliferation Assay C. faecium (converted)
[8] = MRSA, log of EC50 (μM scale), with standard deviation, read-out: log(EC50) Bacterial Proliferation Assay S. aureus Resistant (converted)
[9] = ATCC19606, OD600 at 24 h, read-out: Bacterial Proliferation EC50 A. baumannii
[10] = ATCC19606, log of EC50 (μM scale), with standard deviation, read-out: log(EC50) Bacterial Proliferation Assay A. baumannii (converted)

Compound: COc1c(Br)cccc1C(=O)Nc1ccccc1 [Compound 42, 3-Bromo-2-methoxy-N-phenylbenzamide]
- IC50 (human HSP60/10; [4]): > 100 µM
- IC50 (human HSP60/10; [5]): > 100 µM
- EC50 [1, 6]: > 100 µM
- EC50 [1, 7]: > 100 µM
- EC50 [2, 8]: > 100 µM
- EC50 [3, 9]: > 100 µM
- EC50 [3, 10]: > 100 µM

Compound: COc1ccc(Br)cc1C(=O)Nc1ccccc1 [Compound 43, 5-Bromo-2-methoxy-N-phenylbenzamide]
- IC50 (human HSP60/10; [4]): > 100 µM
- IC50 (human HSP60/10; [5]): > 100 µM
- EC50 [1, 6]: > 100 µM
- EC50 [1, 7]: > 100 µM
- EC50 [2, 8]: > 100 µM
- EC50 [3, 9]: > 100 µM
- EC50 [3, 10]: > 100 µM

Compound: COc1ccccc1C(=O)Nc1ccccc1 [Compound 44, 2-Methoxy-N-phenylbenzamide]
- IC50 (human HSP60/10; [4]): > 100 µM
- IC50 (human HSP60/10; [5]): > 100 µM
- EC50 [1, 6]: > 100 µM
- EC50 [1, 7]: > 100 µM
- EC50 [2, 8]: > 100 µM
- EC50 [3, 9]: > 100 µM
- EC50 [3, 10]: > 100 µM

- IC50 (human HSP60/10; [4]): > 100 µM
- IC50 (human HSP60/10; [5]): > 100 µM
Compound: CO[C@H]1/C=C/O[C@@]2(C)Oc3c(C)c(O)c4c(O)c(c(/C=N/N5CCN(C)CC5)c(O)c4c3C2=O)NC(=O)/C(C)=C\C=C\[C@H](C)[C@H](O)[C@@H](C)[C@@H](O)[C@@H](C)[C@H](OC(C)=O)[C@@H]1C [Rifampicin, rifampicin, reference compound]
- EC50 [1, 6]: 0.13 µM
- EC50 [1, 7]: 0.126 µM
- EC50 ([2]; MRSA, OD600 at 6-8 h, read-out: Bacterial Proliferation EC50 S. aureus Resistant): 0.23 µM
- EC50 [2, 8]: 0.229 µM
- EC50 [3, 9]: 1.3 µM
- EC50 [3, 10]: 1.32 µM

Compound: CN[C@H](CC(C)C)C(=O)N[C@H]1C(=O)N[C@@H](CC(N)=O)C(=O)N[C@H]2C(=O)N[C@H]3C(=O)N[C@H](C(=O)N[C@H](C(=O)O)c4cc(O)cc(O)c4-c4cc3ccc4O)[C@H](O)c3ccc(c(Cl)c3)Oc3cc2cc(c3O[C@@H]2O[C@H](CO)[C@@H](O)[C@H](O)[C@H]2O[C@H]2C[C@](C)(N)[C@H](O)[C@H](C)O2)Oc2ccc(cc2Cl)[C@H]1O [Vancomycin, vancomycin, reference compound]
- IC50 (human HSP60/10): > 100 µM
- HSP60/10-dMDH Refolding Assay log(IC50) (human HSP60/10; log(IC50) ± standard deviation, human HSP60/10-dMDH refolding assay): >2
- EC50 ([1]; ATCC19434, 24 h, read-out: Bacterial Proliferation EC50 E. faecium): 0.6 µM
- EC50 ([1]; ATCC19434, read-out: log(EC50) Bacterial Proliferation Assay C. faecium (converted)): 0.589 µM
- EC50 ([2]; read-out: Bacterial Proliferation EC50 S. aureus Resistant): 0.52 µM
- EC50 ([2]; read-out: log(EC50) Bacterial Proliferation Assay S. aureus Resistant (converted)): 0.513 µM
- EC50 ([3]; ATCC19606, 24 h, read-out: Bacterial Proliferation EC50 A. baumannii): > 100 µM
- EC50 ([3]; ATCC19606, read-out: log(EC50) Bacterial Proliferation Assay A. baumannii (converted)): > 100 µM
